Key:
[1] = target: T1, MMP-13 catalytic domain (Homo sapiens, UniProt P45452); experiment: MMP-13 catalytic domain inhibition (thiopeptolide substrate hydrolysis); format: biochemical; conditions: read-out: MMP-13CD IC50
T1 construct: use the catalytic domain of the MMP-13 enzyme, namely matrix metalloproteinase-13 catalytic domain (“MMP-13CD”)
Text: The assays measure the amount by which a test compound reduces the hydrolysis of a thiopeptolide substrate catalyzed by a matrix metalloproteinase enzyme. […] One such assay is described below in Biological Method 1.
Some of the particular methods described below use the catalytic domain of the MMP-13 enzyme, namely matrix metalloproteinase-13 catalytic domain (“MMP-13CD”), rather than the corresponding full-length enzyme, MMP-13.
Thiopeptolide substrates show virtually no decomposition or hydrolysis at or below neutral pH in the absence of a matrix metalloproteinase enzyme. A typical thiopeptolide substrate commonly utilized for assays is Ac-Pro-Leu-Gly-thioester-Leu-Leu-Gly-OEt. […] Assays are carried out with and without matrix metalloproteinase inhibitor compounds, and the amount of hydrolysis is compared for a determination of inhibitory activity of the test compounds.

[2] = target: T2, MMP-1 full-length (Homo sapiens, UniProt P03956); experiment: MMP-1 full-length inhibition (thiopeptolide substrate hydrolysis); format: biochemical; conditions: read-out: MMP-1FL IC50
T2 sequence (P03956 100-469): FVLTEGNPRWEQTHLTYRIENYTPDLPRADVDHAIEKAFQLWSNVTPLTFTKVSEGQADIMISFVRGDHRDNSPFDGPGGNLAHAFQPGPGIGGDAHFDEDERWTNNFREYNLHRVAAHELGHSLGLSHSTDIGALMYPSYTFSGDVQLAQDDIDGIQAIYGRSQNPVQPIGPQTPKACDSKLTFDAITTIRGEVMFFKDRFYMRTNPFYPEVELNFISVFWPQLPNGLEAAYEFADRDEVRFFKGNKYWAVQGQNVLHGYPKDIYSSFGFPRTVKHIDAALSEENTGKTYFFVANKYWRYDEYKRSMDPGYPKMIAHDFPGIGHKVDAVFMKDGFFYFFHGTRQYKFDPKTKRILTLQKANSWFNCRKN
Text: (§1) Certain compounds of Formula I have been assayed with MMP-1 full-length, MMP-3 catalytic domain, MMP-7 full-length, MMP-8 full-length, MMP-9 full-length, MMP-12 catalytic domain, MMP-14 catalytic domain, and MMP-17 catalytic domain.
(§2) The assays measure the amount by which a test compound reduces the hydrolysis of a thiopeptolide substrate catalyzed by a matrix metalloproteinase enzyme. Such assays are described in detail by Ye et al., in Biochemistry, 1992; 31(45): 11231-11235, which is incorporated herein by reference. One such assay is described below in Biological Method 1.
(§3) Thiopeptolide substrates show virtually no decomposition or hydrolysis at or below neutral pH in the absence of a matrix metalloproteinase enzyme. A typical thiopeptolide substrate commonly utilized for assays is Ac-Pro-Leu-Gly-thioester-Leu-Leu-Gly-OEt. A 100 μL assay mixture will contain 50 mM of N-2-hydroxyethylpiperazine-N′-2-ethanesulfonic acid buffer (“HEPES,” pH 7.0), 10 mM CaCl2, 100 μM thiopeptolide substrate, and 1 mM 5,5′-dithio-bis-(2-nitro-benzoic acid) (DTNB). The thiopeptolide substrate concentration may be varied, for example from 10 to 800 μM to obtain Km and Kcat values. The change in absorbance at 405 nm is monitored on a Thermo Max microplate reader (molecular Devices, Menlo Park, Calif.) at room temperature (22° C.). The calculation of the amount of hydrolysis of the thiopeptolide substrate is based on E412=13600 M^−1 cm^−1 for the DTNB-derived product 3-carboxy-4-nitrothiophenoxide. […]
(§4) Some representative compounds of Formula I have been evaluated for their ability to inhibit MMP-13. Inhibitor activity versus other MMPs with the compounds may be determined using, for example, MMP-1FL, which refers to full length interstitial collagenase; MMP-2FL, which refers to full length Gelatinase A; MMP-3CD, which refers to the catalytic domain of stromelysin; MMP-7FL, which refers to full length matrilysin; MMP-9FL, which refers to full length Gelatinase B; MMP-13CD, which refers to the catalytic domain of collagenase 3; and MMP-14CD, which refers to the catalytic domain of MMP-14. […]

[3] = target: MMP-3 catalytic domain (Homo sapiens, UniProt P08254); experiment: MMP-3 catalytic domain inhibition (thiopeptolide substrate hydrolysis, MES buffer pH 6.0); format: biochemical; conditions: read-out: MMP-3CD IC50
Text: as §1, §2
(§5) Thiopeptolide substrates show virtually no decomposition or hydrolysis at or below neutral pH in the absence of a matrix metalloproteinase enzyme. A typical thiopeptolide substrate commonly utilized for assays is Ac-Pro-Leu-Gly-thioester-Leu-Leu-Gly-OEt. A 100 μL assay mixture will contain 50 mM of N-2-hydroxyethylpiperazine-N′-2-ethanesulfonic acid buffer (“HEPES,” pH 7.0), 10 mM CaCl2, 100 μM thiopeptolide substrate, and 1 mM 5,5′-dithio-bis-(2-nitro-benzoic acid) (DTNB). The thiopeptolide substrate concentration may be varied, for example from 10 to 800 μM to obtain Km and Kcat values. The change in absorbance at 405 nm is monitored on a Thermo Max microplate reader (molecular Devices, Menlo Park, Calif.) at room temperature (22° C.). The calculation of the amount of hydrolysis of the thiopeptolide substrate is based on E412=13600 M^−1 cm^−1 for the DTNB-derived product 3-carboxy-4-nitrothiophenoxide. Assays are carried out with and without matrix metalloproteinase inhibitor compounds, and the amount of hydrolysis is compared for a determination of inhibitory activity of the test compounds.
(§6) Test compounds were evaluated at various concentrations in order to determine their respective IC50 values, the micromolar concentration of compound required to cause a 50% inhibition of catalytic activity of the respective enzyme.
It should be appreciated that the assay buffer used with MMP-3CD was 50 mM N-morpholinoethane sulfonate (“MES”) at pH 6.0 rather than the HEPES buffer at pH 7.0 described above. […]
as §4

[4] = target: T3, MMP-7 full-length (Homo sapiens, UniProt P09237); experiment: MMP-7 full-length inhibition (thiopeptolide substrate hydrolysis); format: biochemical
T3 sequence (P09237 95-267): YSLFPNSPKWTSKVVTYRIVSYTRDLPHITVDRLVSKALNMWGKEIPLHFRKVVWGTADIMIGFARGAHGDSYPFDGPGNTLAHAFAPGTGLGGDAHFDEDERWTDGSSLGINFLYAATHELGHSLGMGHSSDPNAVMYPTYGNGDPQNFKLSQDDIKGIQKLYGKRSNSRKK
Text: as §1, §2, §3, §4

[5] = target: T4, MMP-8 full-length (Homo sapiens, UniProt P22894); experiment: MMP-8 full-length inhibition (thiopeptolide substrate hydrolysis); format: biochemical; conditions: read-out: MMP-8FL IC50
T4 construct: MMP-7 full-length, MMP-8 full-length, MMP-9 full-length
Text: as §1, §2, §5, §6

[6] = target: MMP-9 full-length (Homo sapiens, UniProt P14780); experiment: MMP-9 full-length inhibition (thiopeptolide substrate hydrolysis); format: biochemical; conditions: read-out: MMP-9FL IC50
Text: as §1, §2, §5, §6
(§7) The test described above for the inhibition of MMP-13 may also be adapted and used to determine the ability of the compounds of Formula I to inhibit the matrix metalloproteases MMP-1, MMP-2, MMP-3, MMP-7, MMP-9, MMP-12 and MMP-14.
as §4

[7] = target: MMP-14 catalytic domain (Homo sapiens, UniProt P50281); experiment: MMP-14 catalytic domain inhibition (thiopeptolide substrate hydrolysis); format: biochemical; conditions: read-out: MMP-14CD IC50
Text: as §1, §2, §5, §6, §7, §4

[8] = target: T5, MMP-17 catalytic domain (Homo sapiens, UniProt Q9ULZ9); experiment: MMP-17 catalytic domain inhibition (thiopeptolide substrate hydrolysis); format: biochemical; conditions: read-out: MMP-17CD IC50
T5 construct: MMP-12 catalytic domain, MMP-14 catalytic domain, and MMP-17 catalytic domain
T5 sequence (Q9ULZ9 126-295 limits assumed): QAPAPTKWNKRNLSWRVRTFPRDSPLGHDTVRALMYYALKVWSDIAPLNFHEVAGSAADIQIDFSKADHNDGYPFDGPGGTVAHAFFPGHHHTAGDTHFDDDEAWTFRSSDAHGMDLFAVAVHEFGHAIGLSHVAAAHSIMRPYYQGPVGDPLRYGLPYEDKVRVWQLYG
Text: as §1, §2, §5, §6

[9] = target: T6, MMP-12 catalytic domain (Homo sapiens, UniProt P39900); experiment: MMP-12 catalytic domain inhibition (thiopeptolide substrate hydrolysis); format: biochemical; conditions: read-out: MMP-12CD IC50
T6 construct: MMP-12 catalytic domain, MMP-14 catalytic domain, and MMP-17 catalytic domain
Text: as §1, §2
Thiopeptolide substrates show virtually no decomposition or hydrolysis at or below neutral pH in the absence of a matrix metalloproteinase enzyme. A typical thiopeptolide substrate commonly utilized for assays is Ac-Pro-Leu-Gly-thioester-Leu-Leu-Gly-OEt. A 100 μL assay mixture will contain 50 mM of N-2-hydroxyethylpiperazine-N′-2-ethanesulfonic acid buffer (“HEPES,” pH 7.0), 10 mM CaCl2, 100 μM thiopeptolide substrate, and 1 mM 5,5′-dithio-bis-(2-nitro-benzoic acid) (DTNB). The thiopeptolide substrate concentration may be varied, for example from 10 to 800 μM to obtain Km and Kcat values. The change in absorbance at 405 nm is monitored on a Thermo Max microplate reader (molecular Devices, Menlo Park, Calif.) at room temperature (22° C.). […]

MMP-9 full-length, sequence (P14780 94-707): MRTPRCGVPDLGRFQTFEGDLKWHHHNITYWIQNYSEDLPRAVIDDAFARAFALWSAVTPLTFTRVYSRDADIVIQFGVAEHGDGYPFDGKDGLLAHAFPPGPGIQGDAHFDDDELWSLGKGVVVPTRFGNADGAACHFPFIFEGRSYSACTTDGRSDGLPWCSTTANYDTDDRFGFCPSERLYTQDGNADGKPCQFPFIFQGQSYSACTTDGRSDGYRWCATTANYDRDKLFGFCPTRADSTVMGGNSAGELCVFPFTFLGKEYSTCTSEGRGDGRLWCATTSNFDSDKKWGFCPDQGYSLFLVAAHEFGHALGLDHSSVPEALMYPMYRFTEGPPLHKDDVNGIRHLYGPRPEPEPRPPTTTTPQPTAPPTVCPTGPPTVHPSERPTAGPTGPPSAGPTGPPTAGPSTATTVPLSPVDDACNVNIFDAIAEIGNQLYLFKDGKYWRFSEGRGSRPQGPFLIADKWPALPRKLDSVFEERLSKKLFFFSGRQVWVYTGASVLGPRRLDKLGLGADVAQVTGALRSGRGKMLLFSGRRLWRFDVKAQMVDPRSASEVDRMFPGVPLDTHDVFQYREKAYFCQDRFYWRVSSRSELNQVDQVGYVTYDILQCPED
T4 sequence (P22894 101-467): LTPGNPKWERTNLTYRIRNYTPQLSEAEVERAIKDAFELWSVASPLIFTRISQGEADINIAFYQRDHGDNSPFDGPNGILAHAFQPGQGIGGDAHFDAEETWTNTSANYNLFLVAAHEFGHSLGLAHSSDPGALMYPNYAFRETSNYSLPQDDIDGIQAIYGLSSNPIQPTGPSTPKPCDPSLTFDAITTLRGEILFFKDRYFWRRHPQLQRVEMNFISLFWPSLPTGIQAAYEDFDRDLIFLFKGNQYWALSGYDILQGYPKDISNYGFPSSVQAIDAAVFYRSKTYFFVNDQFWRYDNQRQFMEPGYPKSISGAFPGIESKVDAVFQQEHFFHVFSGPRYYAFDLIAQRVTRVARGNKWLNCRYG
MMP-3 catalytic domain, sequence (P08254 100-272 limits assumed): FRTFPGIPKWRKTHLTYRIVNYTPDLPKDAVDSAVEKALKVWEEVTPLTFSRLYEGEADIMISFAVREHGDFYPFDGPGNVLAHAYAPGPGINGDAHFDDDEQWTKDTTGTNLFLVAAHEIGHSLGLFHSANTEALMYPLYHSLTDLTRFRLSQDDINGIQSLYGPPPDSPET
T6 sequence (P39900 106-263 limits assumed): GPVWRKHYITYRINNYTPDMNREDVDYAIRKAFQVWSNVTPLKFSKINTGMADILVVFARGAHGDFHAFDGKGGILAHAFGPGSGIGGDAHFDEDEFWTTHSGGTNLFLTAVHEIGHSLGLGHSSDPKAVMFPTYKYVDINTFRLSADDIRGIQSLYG

Row | Structure (SMILES) | IC50 [1] [nM] | IC50 [2] [µM] | IC50 [3] [µM] | IC50 [4] [µM] | IC50 [5] [µM] | IC50 [6] [µM] | IC50 [7] [µM] | IC50 [8] [µM] | IC50 [9] [µM] | melting point [°C]
1 | COc1ccc(CC#Cc2cncc(-c3nnn(Cc4ccc(C(=O)O)cc4)n3)c2)cc1 [Example H4, 4-(5-{5-[3-(4-Methoxy-phenyl)-prop-1-ynyl]-pyridin-3-yl}-tetrazol-2-ylmethyl)-benzoic acid] | 2.7 | > 100 | 4.3 | > 30 | > 100 | > 30 | > 30 | > 100 |  | 
2 | O=C(O)c1ccc(Cc2nnc(-c3cccc(C#CCc4ccc(F)cc4)c3)s2)cc1 [Example C2, 4-(5-{3-[3-(4-Fluoro-phenyl)-prop-1-ynyl]-phenyl}-[1,3,4]thiadiazol-2-ylmethyl)-benzoic acid] | 1.1 | > 30 | 100 | 7.9 | > 100 | > 30 | 27 | > 100 |  | 
3 | O=C(O)c1ccc(Cn2nnc(-c3cccc(C#CCc4ccc(F)cc4)c3)n2)cc1 [Example C4, 4-(5-{3-[3-(4-Fluoro-phenyl)-prop-1-ynyl]-phenyl}-tetrazol-2-ylmethyl)-benzoic acid] | 1.5 |  | 4.7 |  | > 100 | > 100 | > 30 | 30 | 18 | 210 to 212
4 | O=C(O)c1ccc(Cn2nnc(-c3ccnc(C(=O)NCc4ccc(F)cc4)c3)n2)cc1 [Example F12, 4-{5-[2-(4-Fluoro-benzylcarbamoyl)-pyridin-4-yl]-tetrazol-2-ylmethyl}-benzoic acid] | 1.7 | > 100 | 100 | > 100 | > 100 | > 100 | > 100 |  |  | 193 to 194
5 | CS(=O)(=O)c1ccc(Cn2nnc(-c3ccnc(C(=O)NCc4ccncc4)c3)n2)cc1 [Example F3, 4-[2-(4-Methanesulfonyl-benzyl)-2H-tetrazol-5-yl]-pyridine-2-carboxylic acid (pyridin-4-ylmethyl)-amide] | 22 |  |  |  |  |  |  |  |  | 143 to 144
6 | O=C(O)COc1ccc(Cn2nnc(-c3cccc(C#CCc4ccc(F)cc4)c3)n2)cc1 [Example D3, [4-(5-{3-[3-(4-Fluoro-phenyl)-prop-1-ynyl]-phenyl}-tetrazol-2-ylmethyl)-phenoxy]-acetic acid] | 7 |  |  |  |  |  |  |  |  | 158.2 to 159.6
7 | O=S(=O)(O)c1ccc(Cn2nnc(-c3cccc(C#CCc4ccc(F)cc4)c3)n2)cc1 [Example D1, 4-(5-{3-[3-(4-Fluoro-phenyl)-prop-1-ynyl]-phenyl}-tetrazol-2-ylmethyl)-benzenesulfonic acid] | 4.5 |  |  |  |  |  |  |  |  | 151 to 152

— patent US20090029995A1, “HETERO BIARYL DERIVATIVES AS MATRIX METALLOPROTEINASE INHIBITORS” (WARNER-LAMBERT COMPANY, priority 2002, published 2009)
